Assay results: patent US12371428B2 (Exelixis, Inc., priority 2019, dated 2025)

Columns and labels:
[1] = molecular target: Human KDR (residues 790-1356) (Homo sapiens (Human), UniProt P35968); test: Human KDR kinase assay, HTRF KinEase (Example B-2); type: biochemical; conditions: protocol of Example B-2 (other compounds)
In short: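 Ten compound concentrations (3% DMSO final) were pre-plated, then KDR (790-1356) with biotinylated peptide in Mg/Mn/DTT buffer was added; ATP at Km (4.0 μM) started a 40 min room-temperature reaction. Detection used Eu-TK antibody and SA-XL665 in EDTA buffer; activity normalized to DMSO and reference inhibitor, IC50 by logistic fit.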

[2] = molecular target: Met (phospho-Met, HGF-stimulated PC-3 prostate cancer cells) (Homo sapiens (Human), UniProt P08581); test: Met autophosphorylation ELISA in PC-3 cells (Example F); type: cell-based; conditions: cellular activity; Met autophosphorylation ELISA in PC-3 cells; read-out: c-Met IC50
In short: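 Serum-starved (3 h) PC-3 cells were treated 1 h with compounds (8-point curve, 0.3% DMSO), then stimulated with 100 ng/mL human HGF for 10 min. Lysate phospho-Met (panTyr) was measured by sandwich ELISA, normalised to DMSO and reference-inhibitor controls. IC50 came from 4-parameter logistic fit.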

[3] = molecular target: KDR (phospho-KDR, VEGF165-stimulated HUVEC cells) (Homo sapiens (Human), UniProt P35968); test: KDR autophosphorylation ELISA in HUVEC cells (Example G); type: cell-based; conditions: cellular activity; KDR autophosphorylation ELISA in HUVEC cells
In short: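 First, endothelial cells were cultured a day, then kept without serum for another day. Next came 1 h with serially diluted compound, a brief 5 min VEGF165 stimulus (100 ng/mL), rapid lysis, and ELISA detection of receptor phosphorylation relative to stimulated and non-stimulated controls.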

Chain of Human KDR (residues 790-1356) (P35968 790-1356): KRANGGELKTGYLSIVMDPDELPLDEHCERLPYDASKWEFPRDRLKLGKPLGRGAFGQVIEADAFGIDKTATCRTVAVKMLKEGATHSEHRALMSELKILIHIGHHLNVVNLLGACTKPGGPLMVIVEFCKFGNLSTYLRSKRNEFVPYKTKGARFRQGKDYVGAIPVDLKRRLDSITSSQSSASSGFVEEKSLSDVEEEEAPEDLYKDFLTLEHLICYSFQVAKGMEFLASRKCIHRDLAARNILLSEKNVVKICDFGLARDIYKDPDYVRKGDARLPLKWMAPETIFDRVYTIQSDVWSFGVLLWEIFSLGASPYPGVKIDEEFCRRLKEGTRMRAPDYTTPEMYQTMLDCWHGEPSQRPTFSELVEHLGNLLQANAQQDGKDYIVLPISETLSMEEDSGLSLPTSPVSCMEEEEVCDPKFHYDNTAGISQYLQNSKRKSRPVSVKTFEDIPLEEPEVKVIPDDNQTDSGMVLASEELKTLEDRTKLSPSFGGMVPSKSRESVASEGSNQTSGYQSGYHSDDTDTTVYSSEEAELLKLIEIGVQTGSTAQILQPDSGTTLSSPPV
Chain of Met (phospho-Met, HGF-stimulated PC-3 prostate cancer cells) (P08581 25-1390): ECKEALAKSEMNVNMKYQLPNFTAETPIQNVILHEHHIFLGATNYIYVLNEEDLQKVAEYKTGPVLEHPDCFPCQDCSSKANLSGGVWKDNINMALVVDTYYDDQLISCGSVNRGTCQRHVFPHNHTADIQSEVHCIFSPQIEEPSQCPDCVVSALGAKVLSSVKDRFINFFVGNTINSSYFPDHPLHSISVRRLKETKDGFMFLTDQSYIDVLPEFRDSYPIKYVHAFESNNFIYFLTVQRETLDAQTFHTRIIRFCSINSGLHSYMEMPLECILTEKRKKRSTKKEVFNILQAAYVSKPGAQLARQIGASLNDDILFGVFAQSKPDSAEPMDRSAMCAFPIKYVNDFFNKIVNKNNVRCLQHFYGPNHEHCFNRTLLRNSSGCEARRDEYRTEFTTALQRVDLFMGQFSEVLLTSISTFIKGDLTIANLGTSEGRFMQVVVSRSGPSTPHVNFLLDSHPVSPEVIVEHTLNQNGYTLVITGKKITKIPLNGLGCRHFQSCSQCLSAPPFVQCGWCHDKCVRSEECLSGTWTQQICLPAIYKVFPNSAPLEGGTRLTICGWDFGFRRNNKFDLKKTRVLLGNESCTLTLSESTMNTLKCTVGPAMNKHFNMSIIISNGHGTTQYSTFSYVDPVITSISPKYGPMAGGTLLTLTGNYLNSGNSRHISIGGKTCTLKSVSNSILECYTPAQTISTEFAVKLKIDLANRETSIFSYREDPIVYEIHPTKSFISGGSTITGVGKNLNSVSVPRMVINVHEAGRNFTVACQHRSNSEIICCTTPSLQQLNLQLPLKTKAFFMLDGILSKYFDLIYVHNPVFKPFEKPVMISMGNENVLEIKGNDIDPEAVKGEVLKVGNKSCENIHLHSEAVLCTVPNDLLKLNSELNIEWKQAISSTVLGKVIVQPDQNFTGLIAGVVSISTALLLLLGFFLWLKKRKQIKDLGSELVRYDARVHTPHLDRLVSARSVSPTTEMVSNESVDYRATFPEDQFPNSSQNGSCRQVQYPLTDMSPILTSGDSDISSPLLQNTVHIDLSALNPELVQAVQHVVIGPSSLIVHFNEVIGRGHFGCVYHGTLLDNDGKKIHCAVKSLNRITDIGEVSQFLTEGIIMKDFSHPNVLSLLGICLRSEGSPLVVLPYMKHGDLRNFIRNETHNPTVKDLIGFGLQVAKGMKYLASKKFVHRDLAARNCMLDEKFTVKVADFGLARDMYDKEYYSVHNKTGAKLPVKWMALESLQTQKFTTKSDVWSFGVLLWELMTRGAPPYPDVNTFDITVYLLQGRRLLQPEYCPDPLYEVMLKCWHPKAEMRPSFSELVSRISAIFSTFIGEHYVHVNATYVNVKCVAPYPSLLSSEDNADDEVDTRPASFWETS
Chain of KDR (phospho-KDR, VEGF165-stimulated HUVEC cells) (P35968 20-1356): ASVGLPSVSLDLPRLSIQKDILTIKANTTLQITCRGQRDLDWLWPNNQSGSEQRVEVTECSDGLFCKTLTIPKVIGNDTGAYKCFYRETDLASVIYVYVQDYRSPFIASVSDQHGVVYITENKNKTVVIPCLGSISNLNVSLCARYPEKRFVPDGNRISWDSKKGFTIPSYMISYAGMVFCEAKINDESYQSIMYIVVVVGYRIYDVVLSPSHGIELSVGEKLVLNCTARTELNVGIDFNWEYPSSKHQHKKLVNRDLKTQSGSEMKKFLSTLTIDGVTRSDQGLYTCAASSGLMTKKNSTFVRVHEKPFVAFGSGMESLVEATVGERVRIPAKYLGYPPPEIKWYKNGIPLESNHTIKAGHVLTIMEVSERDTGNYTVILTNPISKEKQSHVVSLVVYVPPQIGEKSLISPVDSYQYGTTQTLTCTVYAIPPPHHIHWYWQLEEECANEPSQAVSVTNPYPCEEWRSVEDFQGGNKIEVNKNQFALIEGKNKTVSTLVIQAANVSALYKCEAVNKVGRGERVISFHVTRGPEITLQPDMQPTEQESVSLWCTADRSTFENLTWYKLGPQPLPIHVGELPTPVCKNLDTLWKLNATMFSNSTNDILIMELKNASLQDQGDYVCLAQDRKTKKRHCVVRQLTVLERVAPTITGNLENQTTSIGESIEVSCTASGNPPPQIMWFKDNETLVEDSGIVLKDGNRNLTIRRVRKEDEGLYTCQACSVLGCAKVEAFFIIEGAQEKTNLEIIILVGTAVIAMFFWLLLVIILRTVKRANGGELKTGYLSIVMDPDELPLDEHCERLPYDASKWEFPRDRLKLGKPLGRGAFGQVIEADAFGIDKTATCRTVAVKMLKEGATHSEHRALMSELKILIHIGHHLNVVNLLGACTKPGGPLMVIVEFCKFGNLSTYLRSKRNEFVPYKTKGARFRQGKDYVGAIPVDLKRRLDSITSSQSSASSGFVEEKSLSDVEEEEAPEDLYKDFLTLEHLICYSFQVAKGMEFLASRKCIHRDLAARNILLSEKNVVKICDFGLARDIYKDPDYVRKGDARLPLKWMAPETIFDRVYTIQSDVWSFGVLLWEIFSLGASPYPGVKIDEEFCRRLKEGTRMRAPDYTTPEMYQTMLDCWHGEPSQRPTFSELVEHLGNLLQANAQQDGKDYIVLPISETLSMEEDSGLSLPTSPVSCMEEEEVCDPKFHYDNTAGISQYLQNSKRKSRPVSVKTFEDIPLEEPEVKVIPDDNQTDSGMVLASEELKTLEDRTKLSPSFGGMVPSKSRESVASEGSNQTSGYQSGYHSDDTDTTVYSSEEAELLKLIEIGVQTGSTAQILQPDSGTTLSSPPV

Structure (SMILES) | IC50 [1] [nM] | IC50 [2] [nM] | IC50 [3] [nM]
COc1cc2nccc(Oc3ccc(NC(=O)c4cn(C)c(C)c(-c5ccc(F)cc5)c4=O)cc3F)c2nc1OC [Compound 58, N-[4-[(6,7-Dimethoxy-1,5-naphthyridin-4-yl)oxy]-3-fluorophenyl]-5-(4-fluorophenyl)-1,6-dimethyl-4-oxopyridine-3-carboxamide] | < 100 | < 100 | < 100
CCc1cnc2c(Oc3ccc(NC(=O)c4cnc(C)c(-c5ccc(F)cc5C)c4O)cc3F)ccnc2c1 [Compound 419, N-[4-[(7-ethyl-1,5-naphthyridin-4-yl)oxy]-3-fluorophenyl]-5-(4-fluoro-2-methylphenyl)-4-hydroxy-6-methylpyridine-3-carboxamide] | > 300 | < 100 | < 100
COc1cc2nccc(Oc3ccc(NC(=O)c4nn(C)c(C)c(-c5ccc(F)cc5)c4=O)cc3)c2nc1OC [Compound 91, N-[4-[(6,7-Dimethoxy-1,5-naphthyridin-4-yl)oxy]phenyl]-5-(4-fluorophenyl)-1,6-dimethyl-4-oxopyridazine-3-carboxamide] | 100 to 300 | < 100 | 100 to 300
COc1cc2nccc(Oc3ccc(NC(=O)c4cn(C)c(Cl)c(-c5ccc(F)cc5)c4=O)cc3F)c2nc1OC [Compound 412, 6-chloro-N-[4-[(6,7-dimethoxy-1,5-naphthyridin-4-yl)oxy]-3-fluorophenyl]-5-(4-fluorophenyl)-1-methyl-4-oxopyridine-3-carboxamide] | < 100 | < 100 | < 100
COCCOc1nc2c(Oc3ccc(NC(=O)c4cnc(C)c(-c5ccc(F)cc5)c4O)cc3F)ccnc2cc1C [Compound 436, N-[3-fluoro-4-[[6-(2-methoxyethoxy)-7-methyl-1,5-naphthyridin-4-yl]oxy]phenyl]-5-(4-fluorophenyl)-4-hydroxy-6-methylpyridine-3-carboxamide] | 100 to 300 | < 100 | < 100
COc1cc2nccc(Oc3ccc(NC(=O)c4cn(C5CC5)c(C)c(-c5ccc(F)cc5C)c4=O)cc3F)c2nc1OC [Compound 439, 1-cyclopropyl-N-[4-[(6,7-dimethoxy-1,5-naphthyridin-4-yl)oxy]-3-fluorophenyl]-5-(4-fluoro-2-methylphenyl)-6-methyl-4-oxopyridine-3-carboxamide] | > 300 | < 100 | > 300
COc1cc2nccc(Oc3ccc(NC(=O)c4cn(C)c(CF)c(-c5ccc(F)cc5)c4=O)cc3F)c2nc1OC [Compound 73, N-[4-[(6,7-Dimethoxy-1,5-naphthyridin-4-yl)oxy]-3-fluorophenyl]-6-(fluoromethyl)-5-(4-fluorophenyl)-1-methyl-4-oxopyridine-3-carboxamide] | 100 to 300 | < 100 | < 100
COc1cc2nccc(Oc3ccc(NC(=O)c4c(C)nc(OC)c(-c5ccc(F)cc5)c4O)cc3F)c2nc1OC [Compound 442, N-[4-[(6,7-dimethoxy-1,5-naphthyridin-4-yl)oxy]-3-fluorophenyl]-5-(4-fluorophenyl)-4-hydroxy-6-methoxy-2-methylpyridine-3-carboxamide] | < 100 | < 100 | < 100
Cc1cc(F)ccc1-c1c(C)n(C)cc(C(=O)Nc2ccc(Oc3ccnc4cc(C)c(F)nc34)c(F)c2)c1=O [Compound 429, N-[3-fluoro-4-[(6-fluoro-7-methyl-1,5-naphthyridin-4-yl)oxy]phenyl]-5-(4-fluoro-2-methylphenyl)-1,6-dimethyl-4-oxopyridine-3-carboxamide] | > 300 | < 100 | > 300
C=Cc1cc2nccc(Oc3ccc(NC(=O)c4cnc(C)c(-c5ccc(F)cc5)c4O)cc3F)c2nc1OC [Compound 422, N-[4-[(7-ethenyl-6-methoxy-1,5-naphthyridin-4-yl)oxy]-3-fluorophenyl]-5-(4-fluorophenyl)-4-hydroxy-6-methylpyridine-3-carboxamide] | < 100 | < 100 | < 100
COc1cc2nccc(Oc3ccc(NC(=O)c4cnc(C)c(-c5ccc(F)cc5)c4O)cc3)c2nc1OC(C)C [Compound 413, 5-(4-fluorophenyl)-4-hydroxy-N-[4-[(7-methoxy-6-propan-2-yloxy-1,5-naphthyridin-4-yl)oxy]phenyl]-6-methylpyridine-3-carboxamide] | < 100 | < 100 | < 100
COc1cc2nccc(Oc3ccc(NC(=O)c4n[nH]c(C)c(-c5ccc(F)cc5)c4=O)cc3F)c2nc1OC [Compound 88, N-[4-[(6,7-Dimethoxy-1,5-naphthyridin-4-yl)oxy]-3-fluorophenyl]-5-(4-fluorophenyl)-6-methyl-4-oxo-1H-pyridazine-3-carboxamide] | < 100 | < 100 | < 100
COc1ccc2nccc(Oc3ccc(NC(=O)c4n[nH]c(C)c(-c5ccc(F)cc5)c4=O)cc3F)c2n1 [Compound 89, N-[3-Fluoro-4-[(6-methoxy-1,5-naphthyridin-4-yl)oxy]phenyl]-5-(4-fluorophenyl)-6-methyl-4-oxo-1H-pyridazine-3-carboxamide] | < 100 | < 100 | < 100
COc1cnc2c(Oc3ccc(NC(=O)c4ncc(C)n(-c5ccc(F)cc5)c4=O)cc3F)ccnc2c1 [Compound 94, N-[3-Fluoro-4-[(7-methoxy-1,5-naphthyridin-4-yl)oxy]phenyl]-4-(4-fluorophenyl)-5-methyl-3-oxopyrazine-2-carboxamide] | > 300 | < 100 | > 300
COc1ccc2nccc(Oc3ccc(NC(=O)c4c(C)nc(C)c(-c5ccc(F)cc5C)c4O)cc3F)c2n1 [Compound 70, N-[3-Fluoro-4-[(6-methoxy-1,5-naphthyridin-4-yl)oxy]phenyl]-5-(4-fluoro-2-methylphenyl)-4-hydroxy-2,6-dimethylpyridine-3-carboxamide] | 100 to 300 | < 100 | < 100
